Converted amounts (≈) assume the structure as drawn.
System: K562
Experiment: Cytotoxicity against human K562 cells
Format: functional
Details: read-out: LC50 (the source's name)

Q: How did the CC50 turn out when C=CCCCCC(C)CCCCCC#CCCCC(=O)O (configuration not stated) was run?
A: 43.5 µg/mL (≈ 149 µM)

Q: For C=CCCCCC(C)CCCCCC#CCCC(OC)C(=O)OC(=O)C(CCC#CCCCCCC(C)CCCCC=C)OC (configuration not stated), which CC50 is on record?
A: 62.5 µg/mL (≈ 99.7 µM)

Source: ChEMBL document CHEMBL1159373, “New acetylenic acids from a sponge of the genus Stelletta” (2003)
